Data from the NIST ThermoML archive (doi:10.1021/je800110r).

Conditions: 283.15 K, Liquid, Vibrating tube method

CCCCCCCCCC [decane]
Conditions | mass density [kg/m3]
3625 kPa | 740.1
3634 kPa | 740.1
3651 kPa | 740.3
3666 kPa | 740.1
3675 kPa | 740.1
3689 kPa | 740
3701 kPa | 740.1
3713 kPa | 740.1
3724 kPa | 740.1
3735 kPa | 740.2
3748 kPa | 740.2
3759 kPa | 740
3774 kPa | 740.2
3789 kPa | 740.1
3800 kPa | 740.1
3899 kPa | 740.2
3917 kPa | 740.3
3930 kPa | 740.1
3945 kPa | 740.3
3957 kPa | 740.3
3968 kPa | 740.3
3982 kPa | 740.4
3992 kPa | 740.4
4007 kPa | 740.4
4017 kPa | 740.3
4031 kPa | 740.3
4042 kPa | 740.3
4055 kPa | 740.3
4085 kPa | 740.4
4096 kPa | 740.2
4114 kPa | 740.5
4129 kPa | 740.3
4147 kPa | 740.4
4160 kPa | 740.5
4179 kPa | 740.5
4197 kPa | 740.4
4212 kPa | 740.5
4229 kPa | 740.4
4247 kPa | 740.5
4263 kPa | 740.4
4277 kPa | 740.5
4292 kPa | 740.5
4306 kPa | 740.6
4321 kPa | 740.4
4333 kPa | 740.6
4349 kPa | 740.5
4362 kPa | 740.6
4394 kPa | 740.6
4410 kPa | 740.5
4424 kPa | 740.5
4437 kPa | 740.5
4455 kPa | 740.7
4468 kPa | 740.6
4484 kPa | 740.7
4499 kPa | 740.7
4514 kPa | 740.7
4533 kPa | 740.6
4549 kPa | 740.8
4565 kPa | 740.7
4579 kPa | 740.7
4603 kPa | 740.8
4628 kPa | 740.7
4648 kPa | 740.8
4667 kPa | 740.7
4770 kPa | 740.8
4791 kPa | 740.9
4811 kPa | 740.9
4835 kPa | 740.9
5291 kPa | 741.2
5334 kPa | 741.3
5356 kPa | 741.3
5377 kPa | 741.3
5399 kPa | 741.3
5421 kPa | 741.4
5444 kPa | 741.4
5463 kPa | 741.4
5486 kPa | 741.3
5505 kPa | 741.3
5529 kPa | 741.5
5549 kPa | 741.4
5573 kPa | 741.5
5624 kPa | 741.5
5644 kPa | 741.5
5662 kPa | 741.5
5674 kPa | 741.4
5686 kPa | 741.6
5700 kPa | 741.6
5719 kPa | 741.6
5736 kPa | 741.5
5778 kPa | 741.6
5790 kPa | 741.5
5806 kPa | 741.6
5819 kPa | 741.7
5838 kPa | 741.6
5851 kPa | 741.6
5852 kPa | 741.7
5870 kPa | 741.7
5887 kPa | 741.7
5909 kPa | 741.6
5920 kPa | 741.7
5926 kPa | 741.7
5930 kPa | 741.8
5942 kPa | 741.8
5960 kPa | 741.7
5977 kPa | 741.8
5991 kPa | 741.8
6008 kPa | 741.7
6025 kPa | 741.8
6043 kPa | 741.7
6063 kPa | 741.7
6081 kPa | 741.8
6102 kPa | 741.8
6122 kPa | 741.9
6142 kPa | 741.8
6161 kPa | 741.9
6626 kPa | 742.2
6649 kPa | 742.2
6666 kPa | 742.3
6683 kPa | 742.2
6712 kPa | 742.2
6729 kPa | 742.3
6755 kPa | 742.2
6775 kPa | 742.3
6805 kPa | 742.3
6826 kPa | 742.4
6843 kPa | 742.2
6861 kPa | 742.4
6877 kPa | 742.3
6905 kPa | 742.4
6933 kPa | 742.4
6948 kPa | 742.3
6967 kPa | 742.4
6996 kPa | 742.4
7021 kPa | 742.3
7041 kPa | 742.4
7058 kPa | 742.5
7077 kPa | 742.5
